Measurements published in ChEMBL document CHEMBL1130651, “Synthesis of novel C7-aryl substituted pyrrolo[2,1-c][1,4]benzodiazepines (PBDs) via pro-N10-Troc protection and Suzuki coupling” (Bioorg Med Chem Lett, 1998).
pIC50: −log10 of the molar value.

Tests used:
A2780 = test: Compound was evaluated for cytotoxicity against A2780 cell line; type: functional, cell-based; conditions: Homo sapiens
CH1 = test: Compound was evaluated for cytotoxicity against CH1 cell line; type: functional, cell-based; conditions: Homo sapiens

COc1ccc(-c2ccc3c(c2)C(=O)N2CCC[C@H]2C=N3)cc1
pIC50 (A2780): 6.25
pIC50 (CH1): 5.87

O=C1c2cc(-c3ccccc3)ccc2N=C[C@@H]2CCCN12
pIC50 (A2780): 5.94
pIC50 (CH1): 5.82

COc1ccccc1-c1ccc2c(c1)C(=O)N1CCC[C@H]1C=N2
pIC50 (A2780): 5.93
pIC50 (CH1): 5.32

Cc1ccc(-c2ccc3c(c2)C(=O)N2CCC[C@H]2C=N3)cc1
pIC50 (A2780): 6.24
pIC50 (CH1): 5.82

O=C1c2cc(-c3cccc([N+](=O)[O-])c3)ccc2N=C[C@@H]2CCCN12
pIC50 (A2780): 4.46
pIC50 (CH1): 4.65

O=C1c2cc(-c3ccc(F)cc3)ccc2N=C[C@@H]2CCCN12
pIC50 (A2780): 6.18
pIC50 (CH1): 5.33
